Measurements from ChEMBL document CHEMBL4421737, “D-3-phosphoglycerate dehydrogenase allosteric inhibitor and use thereof” (2018).
The source made the active and inactive calls. The rule behind the calls is not given here.

Assays:
MDA-MB-231 = assay: Cytotoxicity against human MDA-MB-231 cells assessed as reduction in cell viability incubated for 72 hrs by MTT assay; format: functional, cell-based; conditions: MDA-MB-231, 72 h
MCF7 = assay: Cytotoxicity against human MCF7 cells assessed as reduction in cell viability incubated for 72 hrs by MTT assay; format: functional, cell-based; conditions: MCF7, 72 h
MCF-10A = assay: Cytotoxicity against human MCF10A cells assessed as reduction in cell viability incubated for 72 hrs by MTT assay; format: cell-based
ZR-75-1 = assay: Cytotoxicity against human ZR-75-1 cells assessed as reduction in cell viability incubated for 72 hrs by MTT assay; format: functional, cell-based; conditions: ZR-75-1, 72 h
MDA-MB-468 [1] = assay: Induction of cell cycle arrest in human MDA-MB-468 cells assessed as accumulation at G0/G1 phase at 10 to 160 uM incubated for 24 hrs by propidium iodide staining based flow cytometry; format: functional
MDA-MB-468 [2] = assay: Antitumor activity against human MDA-MB-468 cells xenografted in NOD.CB17-Prkdc scid/J mouse assessed as inhibition of tumor growth at 20 mg/kg/day measured every two days up to 70 days post treatment initiation; format: functional, organism-based
MDA-MB-468 [3] = assay: Antitumor activity against human MDA-MB-468 cells xenografted in NOD.CB17-Prkdc scid/J mouse assessed as inhibition of tumor growth at 20 mg/kg/day co-treated with 2.5mg/kg/4day doxorubicin measured every two days up to 11 days post treatment initiation relative to doxorubicin alone; format: functional
DLD-1 = assay: Cytotoxicity against human DLD1 cells assessed as reduction in cell viability incubated for 72 hrs by MTT assay; format: functional, cell-based; conditions: DLD-1, 72 h
HCC70 = assay: Cytotoxicity against human HCC70 cells assessed as reduction in cell viability incubated for 72 hrs by MTT assay; format: functional, cell-based; conditions: HCC70, 72 h
MDA-MB-468 [4] = assay: Cytotoxicity against human MDA-MB-468 cells assessed as reduction in cell viability incubated for 72 hrs by MTT assay; format: functional, cell-based; conditions: MDA-MB-468, 72 h
MDA-MB-468 [5] = assay: Antitumor activity against human MDA-MB-468 cells xenografted in NOD.CB17-Prkdc scid/J mouse assessed as inhibition of tumor growth at 20 mg/kg/day co-treated with 2.5mg/kg/4day doxorubicin measured every two days up to 11 days post treatment initiation relative to compound alone; format: functional
MDA-MB-468 [6] = assay: Induction of cell cycle arrest in human MDA-MB-468 cells assessed as accumulation at G0/G1 phase at 2.5 to 40 uM incubated for 24 hrs by propidium iodide staining based flow cytometry; format: functional

Compound	EC50 (MDA-MB-231)	EC50 (MCF7)	EC50 (MCF-10A)	EC50 (ZR-75-1)	Activity (MDA-MB-468 [1])	TGI (MDA-MB-468 [2])	TGI (MDA-MB-468 [3])	EC50 (DLD-1)	EC50 (HCC70)	EC50 (MDA-MB-468 [4])	TGI (MDA-MB-468 [5])	Activity (MDA-MB-468 [6])
CCNC(=S)N/N=C/c1ccc(-c2ccc(C(=O)O)c(Cl)c2)o1	> 200 µM	> 200 µM	64.7 µM	125 µM	Active	Active	41%	167 µM	10 µM	6.9 µM	41%	–
O=C(N/N=C/c1cc([N+](=O)[O-])ccc1O)c1ccc(O)cc1O	27.7 µM	–	45.8 µM	83.4 µM	–	Active	–	18.3 µM	10.8 µM	7.7 µM	–	Active
